Test results: US10206904B2, “Licofelone derivatives and methods of use” (The Board of Regents of the University of Oklahoma, priority 2015, dated 2019)
Like-named read-outs stand apart in the source and are kept apart here.

Test system: small intestinal polyps and colon tumors of Apc Min/+ mice
Settings: for intestinal tumor inhibition: high-dose (700 ppm)
[1] = 350 and 700 ppm, female Apc Min/+ mice
[2] = 350 ppm in diet, female Apc Min/+ mice
[3] = 350 ppm in diet, male Apc Min/+ mice

Experimental: Male Apc^Min/+ (C57BL/6J) and female wild-type littermate mice were initially purchased from The Jackson Laboratory (Bar Harbor, Me.) as founders, and our own breeding colony was established in OUHSC rodent barrier facility and genotyped according to vendor's instructions. All mice were housed 3 per cage in ventilated cages under standardized conditions (21° C., 60% relative humidity, 12 h light/12 h dark cycle, 20 air changes/hr). All mice were allowed ad libitum access to the respective diets and automated tap water purified by reverse osmosis.
All diet ingredients for the semi-purified diets were purchased from Bioserve (Frenchtown, N.J.) and stored at 4° C. before diet preparation. Diets were based on the modified American Institute of Nutrition (AIN)-76A diet. […] Both control and experimental diets were prepared weekly and stored in a cold room. Agent content in the experimental diets was determined periodically in multiple samples taken from the top, middle, and bottom portions of individual diet preparations to verify uniform distribution.
Genotyped Male and female Apc^Min/+ mice were used in the efficacy study. Five week old mice were distributed so that average body weights in each group were equal (10/9 Apc^Min/+ mice in each group) and were fed with AIN-76A diet for one week. […] Body weight, food, and fluid consumption were monitored weekly for signs of weight loss or lethargy that might indicate intestinal obstruction or anemia. Mice were routinely checked for any abnormalities. After 12 weeks, all mice were euthanized by CO2 asphyxiation, blood was collected immediately by heart puncture, and serum was separated by centrifugation and stored at −80° C. until further analysis. […] After necropsy, the entire intestinal tract was harvested, flushed with 0.9% NaCl and opened longitudinally from the esophagus to the distal rectum. The tissue was flattened on filter paper to expose the tumors and briefly frozen on dry ice to aid visual scoring of tumors. The number, location, and size of visible tumors in the entire intestine were determined under a dissection microscope (×5). All tumors were scored and subdivided by location (duodenal, jejunal and ileum and colon) and size (>2 mm, 1-2 or <1 mm in diameter). This procedure was completed by two individuals who were blinded to the experimental group and the genetic status of the mice. Colonic and other small intestinal tumors that required further histopathologic evaluation to identify adenoma, adenocarcinoma, and enlarged lymph nodes were fixed in 10% neutral-buffered formalin, embedded in paraffin blocks, and processed by routine H&E staining.
All results are expressed as mean±SE and were analyzed by Student's t test. Differences were considered significant at the P<0.05 level.

CC1(C)Cc2c(-c3ccccc3)c(-c3ccc(Cl)cc3)c(CC(=O)NCC(=O)O)n2C1 [LFA-9, licofelone-glycine]
colonic tumors per mouse [1]: 0.1 tumors per mouse
reduction in the colonic tumors [1]: 90%
colon tumor inhibition [2]: 90%
fewer polyps with sizes greater than 2 mm [2]: 81.6%
colon tumor inhibition [3]: 60%
fewer polyps with sizes greater than 2 mm [3]: 76.8%
total intestinal tumors (polyps), means±SEM [3]: 31.6±5.99
suppression of polyps of greater than 2 mm size (700 ppm in diet, both genders, Apc Min/+ mice): more than 81%
inhibition of colon tumors (700 ppm in diet, both male and female Apc Min/+ mice): 91%
total intestinal tumors (polyps), means±SEM (700 ppm in diet, female Apc Min/+ mice): 15.5±1.79
total intestinal tumors (polyps), means±SEM (700 ppm in diet, male Apc Min/+ mice): 24.3±3.7
body weights of Apc Min/+ mice versus control diet (LFA-9 in diet (350, 700 ppm)): higher weight gains
intestinal tumor inhibition (female Apc Min/+ mice): 73.8%
intestinal tumor inhibition (male Apc Min/+ mice): approximately 56%
gross changes attributable to toxicity in liver, kidneys or lungs; body weight gain (wild-type mice): did not produce any gross changes attributable to toxicity
